The target of data set [1] is Tyrosine-protein kinase BTK (Homo sapiens, UniProt Q06187). The data set is described as follows: Inhibition of full length recombinant human N-terminal His tagged […] expressed in baculovirus infected Sf9 insect cells using poly (Glu,Tyr)4:1 as substrate pretreated for 60 mins followed by substrate addition after 1 hr by ADP-Glo luminescence assay. A general note: ADP-Glo turns the ADP formed in a reaction into a luminescent signal.

The target in data set [2] is Epidermal growth factor receptor (Homo sapiens, UniProt P00533). The data set can be described thus: Inhibition of recombinant human N-terminal GST-tagged wild-type EGFR (695 to end residues) expressed in baculovirus infected Sf9 insect cells using poly (Glu,Tyr)4:1 as substrate pretreated for 60 mins followed by substrate addition after 1 hr by ADP-Glo luminescence assay.
Epidermal growth factor receptor, sequence (P00533 whole entry): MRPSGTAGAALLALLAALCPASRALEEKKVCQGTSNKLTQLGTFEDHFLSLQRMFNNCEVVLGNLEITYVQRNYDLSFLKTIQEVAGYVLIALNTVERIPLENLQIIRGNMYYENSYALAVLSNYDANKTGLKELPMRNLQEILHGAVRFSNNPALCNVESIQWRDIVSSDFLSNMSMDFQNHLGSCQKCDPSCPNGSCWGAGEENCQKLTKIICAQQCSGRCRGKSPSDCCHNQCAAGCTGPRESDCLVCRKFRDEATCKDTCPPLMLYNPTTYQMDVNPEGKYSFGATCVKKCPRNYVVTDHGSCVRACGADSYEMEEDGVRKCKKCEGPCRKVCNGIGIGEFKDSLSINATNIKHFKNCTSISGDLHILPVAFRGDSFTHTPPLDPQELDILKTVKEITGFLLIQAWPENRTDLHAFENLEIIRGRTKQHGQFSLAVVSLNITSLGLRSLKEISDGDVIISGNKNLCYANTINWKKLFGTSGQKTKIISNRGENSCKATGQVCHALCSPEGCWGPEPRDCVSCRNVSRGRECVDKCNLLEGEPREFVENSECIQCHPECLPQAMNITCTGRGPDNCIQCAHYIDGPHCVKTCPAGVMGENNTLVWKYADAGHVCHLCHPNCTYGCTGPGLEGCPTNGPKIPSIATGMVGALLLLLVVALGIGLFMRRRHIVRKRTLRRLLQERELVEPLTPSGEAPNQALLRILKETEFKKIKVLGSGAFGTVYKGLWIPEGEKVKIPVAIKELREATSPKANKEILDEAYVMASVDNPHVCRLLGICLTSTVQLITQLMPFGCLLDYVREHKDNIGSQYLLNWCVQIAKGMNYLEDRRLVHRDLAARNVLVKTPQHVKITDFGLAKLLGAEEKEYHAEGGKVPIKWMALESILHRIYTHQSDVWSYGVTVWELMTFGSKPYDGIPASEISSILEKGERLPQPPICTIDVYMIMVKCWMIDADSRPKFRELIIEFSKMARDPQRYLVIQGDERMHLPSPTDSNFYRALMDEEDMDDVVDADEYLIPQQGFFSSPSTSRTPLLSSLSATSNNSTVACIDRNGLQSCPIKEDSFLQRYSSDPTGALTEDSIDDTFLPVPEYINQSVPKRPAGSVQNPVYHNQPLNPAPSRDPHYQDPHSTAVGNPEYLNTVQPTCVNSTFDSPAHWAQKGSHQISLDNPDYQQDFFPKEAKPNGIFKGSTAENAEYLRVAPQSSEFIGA

Data set [3] concerns the target T1, Tyrosine-protein kinase JAK3 (Homo sapiens, UniProt P52333).
T1 sequence (P52333 whole entry): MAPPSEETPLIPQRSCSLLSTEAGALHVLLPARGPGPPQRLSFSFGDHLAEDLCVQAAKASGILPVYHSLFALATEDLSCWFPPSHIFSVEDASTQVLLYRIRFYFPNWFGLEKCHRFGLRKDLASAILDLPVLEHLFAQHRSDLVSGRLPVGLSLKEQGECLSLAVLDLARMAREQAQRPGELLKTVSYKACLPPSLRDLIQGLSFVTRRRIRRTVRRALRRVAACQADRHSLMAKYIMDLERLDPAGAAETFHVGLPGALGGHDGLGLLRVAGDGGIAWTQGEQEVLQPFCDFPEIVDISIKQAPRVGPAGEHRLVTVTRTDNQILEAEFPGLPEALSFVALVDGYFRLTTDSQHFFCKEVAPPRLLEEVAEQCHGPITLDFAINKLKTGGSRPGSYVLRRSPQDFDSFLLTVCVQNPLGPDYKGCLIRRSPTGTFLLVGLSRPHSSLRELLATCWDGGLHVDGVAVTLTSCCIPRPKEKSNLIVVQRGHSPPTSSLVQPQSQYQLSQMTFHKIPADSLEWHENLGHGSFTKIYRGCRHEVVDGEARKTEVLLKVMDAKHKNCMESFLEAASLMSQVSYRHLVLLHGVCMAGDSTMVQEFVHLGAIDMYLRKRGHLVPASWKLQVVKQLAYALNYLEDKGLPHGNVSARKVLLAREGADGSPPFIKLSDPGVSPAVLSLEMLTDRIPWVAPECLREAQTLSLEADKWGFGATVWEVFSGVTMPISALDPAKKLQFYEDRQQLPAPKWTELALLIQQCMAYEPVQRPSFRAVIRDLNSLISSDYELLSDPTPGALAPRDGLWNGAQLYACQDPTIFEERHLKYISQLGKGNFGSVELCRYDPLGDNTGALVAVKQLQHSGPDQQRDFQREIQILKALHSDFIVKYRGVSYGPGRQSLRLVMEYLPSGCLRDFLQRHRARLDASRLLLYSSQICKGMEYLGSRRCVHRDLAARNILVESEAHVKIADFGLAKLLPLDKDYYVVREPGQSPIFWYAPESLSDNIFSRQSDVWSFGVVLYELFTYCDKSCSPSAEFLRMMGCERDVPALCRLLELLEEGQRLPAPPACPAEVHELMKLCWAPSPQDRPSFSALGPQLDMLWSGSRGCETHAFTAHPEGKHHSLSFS
The data set is described as follows: Inhibition of recombinant human N-terminal GST-tagged JAK3 (781 to end residues) expressed in baculovirus infected Sf9 insect cells using poly (Glu,Tyr)4:1 as substrate pretreated for 60 mins followed by substrate addition after 1 hr by ADP-Glo luminescence assay.

The next data set relates to MV4-11. The data set can be described thus: Growth inhibition of human MV411 cells. The class given is functional.
The subject of data set [4] is Pfeiffer. The data set can be described thus: Growth inhibition of human Pfeiffer cells. The format is functional.
The subject of another data set is OCI-AML-3. The data set can be described thus: Growth inhibition of human OCI-AML3 cells. The format is functional.
For a further data set, the system named is SU-DHL-2. The data set is described as follows: Growth inhibition of human SU-DHL-2 cells. The class given is functional.
A further data set relates to SKM-1. The data set can be described thus: Growth inhibition of human SKM1 cells. The class given is functional.
A further data set has as its system U-937. The data set can be described thus: Growth inhibition of human U937 cells. The format is functional.
Data set [5] relates to U2932. The data set can be described thus: Cell cycle arrest in human U2932 cells assessed as increase in accumulation at G0/G1 phase at 10 uM after 48 hrs by propidium iodide/RNase staining based flow cytometric method. The format is functional. (A flow cytometer gives signals particle by particle.)
Data set [6] relates to Pfeiffer. The data set can be described thus: Cell cycle arrest in human Pfeiffer cells assessed as increase in accumulation at G0/G1 phase at 10 uM after 48 hrs by propidium iodide/RNase staining based flow cytometric method. The class given is functional.
In a further data set the test system is NB-4. The data set can be described thus: Growth inhibition of human NB4 cells. The class given is functional.
Data set [7] deals with U2932. The data set is described as follows: Growth inhibition of human U2932 cells. The format is functional.
A further data set deals with Ramos. The data set is described as follows: Growth inhibition of human Ramos cells. The format is functional.
A short description of data set [8]: Growth inhibition of human M07e cells. The format is functional.
The test system of another data set is PBMC. The data set is described as follows: Cytotoxicity against PBMC (unknwon origin). The class given is cell-based.

Activity calls are given as the source filed them. The rule behind the calls is not given here. Bounds are passed on as bounds.

By IC50 is commonly meant the concentration needed to halve the response being measured. By GI50 is commonly meant the concentration giving 50% growth inhibition.

Tyrosine-protein kinase BTK, sequence (Q06187 whole entry): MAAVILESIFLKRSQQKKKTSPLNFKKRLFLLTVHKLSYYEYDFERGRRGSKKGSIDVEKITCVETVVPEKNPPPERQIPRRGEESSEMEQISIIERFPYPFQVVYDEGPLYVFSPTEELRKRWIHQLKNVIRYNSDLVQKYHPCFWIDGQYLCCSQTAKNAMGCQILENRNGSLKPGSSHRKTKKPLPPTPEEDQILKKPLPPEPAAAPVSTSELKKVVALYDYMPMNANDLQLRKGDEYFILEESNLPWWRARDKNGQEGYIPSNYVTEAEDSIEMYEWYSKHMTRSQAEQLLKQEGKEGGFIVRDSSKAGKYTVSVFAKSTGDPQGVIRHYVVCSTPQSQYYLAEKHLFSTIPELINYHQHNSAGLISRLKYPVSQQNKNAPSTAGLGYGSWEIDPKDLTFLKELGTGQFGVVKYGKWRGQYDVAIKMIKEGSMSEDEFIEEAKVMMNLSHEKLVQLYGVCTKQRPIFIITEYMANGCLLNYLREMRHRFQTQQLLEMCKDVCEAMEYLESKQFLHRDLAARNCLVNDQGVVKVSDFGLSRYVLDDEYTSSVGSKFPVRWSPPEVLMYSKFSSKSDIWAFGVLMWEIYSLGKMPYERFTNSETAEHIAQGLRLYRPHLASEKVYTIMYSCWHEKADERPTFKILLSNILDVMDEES

On to `C=CC(=O)Nc1cc(Nc2cc(-c3cccc(NC(=O)c4ccc(N(C)C)cc4)c3C)cn(C)c2=O)ccc1C(=O)N1CCC(OC)CC1`, for which the IC50 in [1] is 0.596 µM. For `C=CC(=O)Nc1cc(Nc2cc(-c3cccc(NC(=O)c4ccc(C(C)(C)C)cc4)c3C)cn(C)c2=O)ccc1C(=O)OC`, the half-inhibitory concentration (IC50) in [1] turned out to be 0.197 µM. `C=CC(=O)Nc1cccc(Nc2ncc(NC(=O)c3cc(NC(=O)c4cccc(C(F)(F)F)c4)ccc3C)cn2)c1`: the IC50 in [2] came out at 0.072 µM; in [3] it was 1.7 µM. Consider `C=CC(=O)Nc1cc(Nc2cc(-c3cccc(NC(=O)c4ccc(N(C)C)cc4)c3C)cn(C)c2=O)ccc1C(=O)N(CCOCC)CCOCC`, for which the IC50 in data set [1] amounted to 3.19 µM.

Take `C=CC(=O)Nc1cc(Nc2cc(-c3cccc(NC(=O)c4ccc(C(C)(C)C)cc4)c3C)cn(C)c2=O)ccc1C`: in [1], the IC50 amounted to 0.365 µM. As for `C=CC(=O)Nc1cc(Nc2cc(-c3cccc(NC(=O)c4ccc(N5CCOCC5)cc4)c3C)cn(C)c2=O)ccc1C(=O)N1CCOCC1`, the IC50 in [1] worked out at 0.273 µM. The same measure, in the same setting: the figure for `C=CC(=O)Nc1ccc(NC(=O)c2ccc(C(C)(C)C)cc2)c(C)c1-c1cc(Nc2ccc(C(=O)N3CCOCC3)cc2)c(=O)n(C)c1` is 1.7 µM; for `C=CC(=O)Nc1cc(Nc2cc(-c3cccc(NC(=O)c4ccc(C(C)(C)C)cc4)c3C)cn(C)c2=O)ccc1C(=O)NC1CC1` it is 0.041 µM. As for `C=CC(=O)Nc1cccc(Nc2nc(Nc3ccc(OCCOC)cc3)ncc2F)c1` [SPEBRUTINIB], the values for the IC50 in data set [2] and in [3] were 0.442 µM and 1.75 µM, respectively. Turning to `C=CC(=O)Nc1cc(Nc2cc(-c3cccc(NC(=O)c4ccc(C(C)(C)C)cc4)c3C)cn(C)c2=O)ccc1C(=O)N1CCC(OC)CC1`, the IC50 in data set [1] was found to be 0.065 µM. As for `C=CC(=O)Nc1cccc(Nc2nc(Nc3ccc(Oc4ccnc(C(=O)NC)c4)cc3)ncc2F)c1`, the IC50 in [3] is 1.53 µM. With `C=CC(=O)NC1CCN(c2cc(-c3cccc(NC(=O)c4ccc(N(C)C)cc4)c3C)cn(C)c2=O)CC1`, in data set [1], the IC50 was greater than 10 µM. On the same count and under the same terms, then `C=CC(=O)Nc1cc(Nc2cc(-c3cccc(NC(=O)c4ccc(C(C)(C)C)cc4)c3C)cn(C)c2=O)ccc1C(=O)N(C)C`, with 0.034 µM. On the same count and under the same terms, the figure for `C=CC(=O)Nc1cc(Nc2cc(-c3cccc(NC(=O)c4ccccc4)c3C)cn(C)c2=O)ccc1C(=O)N1CCOCC1` is 3.74 µM; for `C=CC(=O)Nc1cc(Nc2cc(-c3cccc(NC(=O)c4ccc5c(c4)OCCO5)c3C)cn(C)c2=O)ccc1C(=O)N1CCOCC1` it is 0.089 µM; for `C=CC(=O)Nc1cc(Nc2cc(-c3cccc(NC(=O)c4ccc(C(F)(F)F)cc4)c3C)cn(C)c2=O)ccc1C(=O)N1CCOCC1` it is 0.076 µM. Still for that read-out and setting: then `C=CC(=O)Nc1cc(Nc2cc(-c3cccc(NC(=O)c4cccc(OC)c4)c3C)cn(C)c2=O)ccc1C(=O)N1CCOCC1`, with 1.19 µM; and `C=CC(=O)Nc1cc(Nc2cc(-c3cccc(NC(=O)c4ccc(OC)cc4)c3C)cn(C)c2=O)ccc1C(=O)N1CCOCC1`, with 2.61 µM. As to `C=CC(=O)N1CCC(Nc2cc(-c3cccc(NC(=O)c4ccc(N(C)C)cc4)c3C)cn(C)c2=O)CC1`, in [1], the IC50 is greater than 10 µM. Same read-out and setting: then `C=CC(=O)NC1CCCC(Nc2cc(-c3cccc(NC(=O)c4ccc(N(C)C)cc4)c3C)cn(C)c2=O)C1` (stereo unspecified), with 2.95 µM; and `C=CC(=O)Nc1cc(Nc2cc(-c3cccc(NC(=O)c4cccc(C(F)(F)F)c4)c3C)cn(C)c2=O)ccc1C(=O)N1CCOCC1`, with greater than 10 µM.

Consider `C=CC(=O)Nc1cccc(Nc2cc(-c3cccc(NC(=O)c4ccc(C(C)(C)C)cc4)c3C)cn(C)c2=O)c1`, for which the IC50 in data set [1] is greater than 10 µM. Still for that read-out and setting: the figure for `C=CC(=O)N1CCCC(Nc2cc(-c3cccc(NC(=O)c4ccc(N(C)C)cc4)c3C)cn(C)c2=O)C1` (stereo unspecified) is greater than 10 µM. As for `C=CC(=O)Nc1cc(Nc2cc(-c3cccc(NC(=O)c4ccc5c(c4)CCCC5)c3C)cn(C)c2=O)ccc1C(=O)N1CCOCC1`, the IC50 in [1] amounted to 0.057 µM.

As to `C=CC(=O)Nc1cc(Nc2cc(-c3cccc(NC(=O)c4ccc(N(C)C)cc4)c3C)cn(C)c2=O)ccc1C(=O)N1CCCC(O)C1` (stereo unspecified), the IC50 in [1] came to 0.244 µM. Same read-out and setting: then `Cc1c(NC(=O)c2ccc(C(C)(C)C)cc2)cccc1-c1cc(Nc2ccc(C(=O)N3CCOCC3)c(NC(=O)CCl)c2)c(=O)n(C)c1`, with 0.063 µM; and `C=CC(=O)Nc1cc(Nc2cc(-c3cccc(NC(=O)c4ccc(N5CCCC5)cc4)c3C)cn(C)c2=O)ccc1C(=O)N1CCOCC1`, with 0.086 µM. On to `C=CC(=O)Nc1cc(Nc2cc(-c3cccc(NC(=O)c4ccc(C(C)(C)C)cc4)c3C)cn(C)c2=O)ccc1C(=O)N1CCN(C)CC1`, for which, in data set [1], the IC50 is 0.127 µM.

As to `C=CC(=O)Nc1cc(Nc2cc(-c3cccc(NC(=O)c4ccc(C)c(C(F)(F)F)c4)c3C)cn(C)c2=O)ccc1C(=O)N1CCOCC1`, in data set [1], the IC50 came out at 1.26 µM. Still for that read-out and setting: the figure for `C=CC(=O)Nc1cc(C(=O)N2CCOCC2)ccc1Nc1cc(-c2cccc(NC(=O)c3ccc(C(C)(C)C)cc3)c2C)cn(C)c1=O` is 0.231 µM; for `C=CC(=O)Nc1cc(Nc2cc(-c3cccc(NC(=O)c4ccc(C(C)C)cc4)c3C)cn(C)c2=O)ccc1C(=O)N1CCOCC1` it is 0.032 µM. For the compound `C=CC(=O)N1CCC[C@@H](n2nc(-c3ccc(Oc4ccccc4)cc3)c3c(N)ncnc32)C1` [IBRUTINIB], the GI50 was found to be 0.25 µM in the data set with MV4-11; 1.6 µM with Pfeiffer [4]; 9.2 µM in the data set with OCI-AML-3; 0.64 µM with SU-DHL-2; 3.6 µM in the data set on SKM-1; 2.9 µM in the data set with U-937. Further, the GI50 with NB-4 is 3 µM; in the data set with U2932 [7] it was 4.4 µM; in the data set on Ramos, 3.4 µM; in [8], 0.59 µM. The outcome in the data set with U2932 [5] and with Pfeiffer [6] was Active. The Activity result with PBMC was “Non-Toxic”. As to `C=CC(=O)Nc1cc(Nc2cc(-c3cccc(NC(=O)c4cc(OC)c(OC)c(OC)c4)c3C)cn(C)c2=O)ccc1C(=O)N1CCOCC1`, the IC50 in data set [1] was 1.43 µM. Same read-out and setting: then `C=CC(=O)NC1CCCN(c2cc(-c3cccc(NC(=O)c4ccc(N(C)C)cc4)c3C)cn(C)c2=O)C1` (stereo unspecified), with greater than 10 µM; and `C=CC(=O)Nc1cc(Nc2cc(-c3cccc(NC(=O)c4ccc(N(C)C)cc4)c3C)cn(C)c2=O)ccc1C(=O)N1CCC(O)CC1`, with 0.187 µM. With `C=CC(=O)Nc1cc(Nc2cc(-c3cccc(NC(=O)c4ccc(C)cc4)c3C)cn(C)c2=O)ccc1C(=O)N1CCOCC1`, the IC50 in [1] is 0.114 µM.

In the case of `C=CC(=O)Nc1cc(Nc2cc(-c3cccc(NC(=O)c4ccc(CC)cc4)c3C)cn(C)c2=O)ccc1C(=O)N1CCOCC1`, the IC50 in [1] was found to be 0.21 µM. Same read-out and setting: the figure for `C=CC(=O)Nc1cc(Nc2cc(-c3cccc(NC(=O)c4ccc(C(C)(C)C)cc4)c3C)cn(C)c2=O)ccc1C(=O)N1CCN(C(=O)OC(C)(C)C)CC1` is 0.068 µM; for `C=CC(=O)Nc1cc(Nc2cc(-c3cccc(NC(=O)c4ccc(C(C)(C)C)cc4)c3C)cn(C)c2=O)ccc1C(=O)N1CCCC(O)C1` (stereo unspecified) it is 0.021 µM. Same read-out and setting: the figure for `C=CC(=O)Nc1cc(Nc2cc(-c3cccc(NC(=O)c4ccc5c(c4)OCO5)c3C)cn(C)c2=O)ccc1C(=O)N1CCOCC1` is 0.282 µM.

On to `C=CC(=O)N1CCc2ccc(-n3c(=O)ccc4cnc5ccc(-c6cnn(C)c6)cc5c43)cc21`, for which the results for the 50% inhibitory concentration (IC50) in [2] and in data set [3] were 0.874 µM and 3.34 µM, respectively.
